# Assays:
# Experiment in all cases: relative viability (nuclei count vs DMSO), 5 days (fraction); higher = more cells survive
# OSI-027 + Phenformin = compound: COc1cccc2cc(-c3nc([C@H]4CC[C@H](C(=O)O)CC4)n4ncnc(N)c34)[nH]c12 [OSI-027] + N=C(N)NC(=N)NCCc1ccccc1 [Phenformin] (partner 250 µM)
# Method in brief: (§1)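 Five library-drug doses in √10 steps were combined with a fixed anchor-drug dose, or a single drug was given alone, by pin tool to lung cancer cell lines in 1536-well plates the day after seeding. Nuclei were stained and counted after 5 days. Relative viability is the nuclei count in treated wells over that in vehicle wells, taken as the median of duplicate plates.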
# Alpelisib + Luminespib = compound: Cc1nc(NC(=O)N2CCC[C@H]2C(N)=O)sc1-c1ccnc(C(C)(C)C(F)(F)F)c1 [Alpelisib] + CCNC(=O)c1noc(-c2cc(C(C)C)c(O)cc2O)c1-c1ccc(CN2CCOCC2)cc1 [Luminespib] (partner 0.01 µM)
# Method in brief: as §1
# Vemurafenib + Pictilisib = compound: CCCS(=O)(=O)Nc1ccc(F)c(C(=O)c2c[nH]c3ncc(-c4ccc(Cl)cc4)cc23)c1F [Vemurafenib] + CS(=O)(=O)N1CCN(Cc2cc3nc(-c4cccc5[nH]ncc45)nc(N4CCOCC4)c3s2)CC1 [Pictilisib] (partner 1 µM)
# Method in brief: as §1
# OSI-027 + Navitoclax = compound: COc1cccc2cc(-c3nc([C@H]4CC[C@H](C(=O)O)CC4)n4ncnc(N)c34)[nH]c12 [OSI-027] + CC1(C)CCC(c2ccc(Cl)cc2)=C(CN2CCN(c3ccc(C(=O)NS(=O)(=O)c4ccc(N[C@H](CCN5CCOCC5)CSc5ccccc5)c(S(=O)(=O)C(F)(F)F)c4)cc3)CC2)C1 [Navitoclax] (partner 0.5 µM)
# Method in brief: as §1
Cell Line,relative viability (OSI-027 + Phenformin; first compound 0.01 µM),relative viability (OSI-027 + Phenformin; first compound 0.03162 µM),relative viability (OSI-027 + Phenformin; first compound 0.1 µM),relative viability (OSI-027 + Phenformin; first compound 0.3162 µM),relative viability (OSI-027 + Phenformin; first compound 1 µM),relative viability (Alpelisib + Luminespib; first compound 0.04 µM),relative viability (Alpelisib + Luminespib; first compound 0.1265 µM),relative viability (Alpelisib + Luminespib; first compound 0.4 µM),relative viability (Alpelisib + Luminespib; first compound 1.265 µM),relative viability (Alpelisib + Luminespib; first compound 4 µM),relative viability (Vemurafenib + Pictilisib; first compound 0.03162 µM),relative viability (Vemurafenib + Pictilisib; first compound 0.1 µM),relative viability (Vemurafenib + Pictilisib; first compound 0.3162 µM),relative viability (Vemurafenib + Pictilisib; first compound 1 µM),relative viability (OSI-027 + Navitoclax; first compound 0.01 µM),relative viability (OSI-027 + Navitoclax; first compound 0.03162 µM),relative viability (OSI-027 + Navitoclax; first compound 0.1 µM),relative viability (OSI-027 + Navitoclax; first compound 0.3162 µM),relative viability (OSI-027 + Navitoclax; first compound 1 µM)
NCI-H596,0.875,0.576,0.844,0.865,0.614,0.832,0.884,0.87,0.599,0.424,0.352,0.356,0.429,0.388,0.888,0.941,0.933,0.85,0.459
BEN,0.248,0.27,0.288,0.244,0.232,0.341,0.101,0.474,0.332,0.159,0.529,0.593,0.358,0.431,0.0799,0.0753,0.0684,0.0639,0.0589
LU99A,0.777,0.844,0.869,0.593,0.292,0.298,0.216,0.249,0.226,0.247,0.282,0.311,0.297,0.286,0.754,0.651,0.695,0.427,0.154
RERF-LC-KJ,0.458,0.423,0.383,0.383,0.361,1.32,1.16,1.36,0.917,1.03,0.838,0.464,0.707,0.597,0.795,1,0.839,0.672,0.289
NCI-H1944,0.2,0.222,0.19,0.172,0.137,0.644,0.739,0.706,0.456,0.275,0.318,0.326,0.331,0.307,1.1,1.04,1.03,0.963,0.719
HARA,0.439,0.425,0.488,0.408,0.261,0.406,0.955,0.896,0.515,0.341,0.41,,0.459,0.486,1.18,1.26,1.24,1.34,0.354
A-427,0.296,0.332,0.289,0.269,0.297,0.909,0.881,1.09,0.83,0.92,0.751,0.754,0.564,0.738,0.974,0.873,0.837,0.603,0.696
NCI-H2023,0.452,0.367,0.397,0.301,0.213,0.644,0.606,0.679,0.505,0.4,0.218,0.222,0.302,0.225,0.982,0.99,0.964,0.708,0.255

# Source: the supplement of paper PMC10307832
